The record followed here is the supplement of paper PMC10290057.

Assay [1] has as its system HCT116. Put plainly: AC50 cell viability (CellTiter-Glo); higher = less potent. The conditions noted are these: 48 h. (In general: Cellular ATP, detected with luciferase, serves as a proxy for viable cell number.)
The subject of assay [2] is HCT116. Put plainly: efficacy (fitted maximal change in viability relative to DMSO control); higher = less cytotoxic (negative = loss of viability). The conditions noted are these: 48 h.

Where a name gives a salt, the structure may show the parent alone.
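For AC50 cell viability (CellTiter-Glo) in this document: HCT116 colorectal carcinoma cells screened at five concentrations per compound, luminescent viability scaled between DMSO wells and empty wells on each plate, curves fitted per compound.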
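For efficacy (fitted maximal change in viability relative to DMSO control) in this document: Luminescence-based viability readout, five doses per compound, normalized against on-plate DMSO and empty-well controls, followed by dose-response curve fitting for every drug.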

Turning to `Nc1nc(F)nc2c1ncn2[C@@H]1O[C@H](COP(=O)(O)O)[C@@H](O)[C@@H]1O` [Fludarabine phosphate], in assay [1], the AC50 cell viability worked out at 7.42 µM. In addition, in assay [2], the efficacy is -58.2%.

With `Cc1ncc(NC(=O)c2ccc(CN3CCN(C)CC3)c(C(F)(F)F)c2)cc1Nc1nccc(-c2cccnc2)n1` [Flumatinib mesylate], the AC50 cell viability in assay [1] is 18.6 µM. In addition, in assay [2], the efficacy was -95.8%.

In assay [1], `NC\1=N\C(=O)N(\C=C1)[C@H]\2[C@H](O)[C@H](O)C(=C2F)\CO` [Fluorocyclopentenylcytosine] returned an AC50 cell viability of 0.525 µM. Moreover, in assay [2], the efficacy is -66.3%.

For `F\C1=C\NC(=O)NC1=O` [Fluorouracil], the AC50 cell viability in assay [1] worked out at 10.5 µM. Besides, the efficacy in assay [2] is -64.4%.

In turn, `OCCN1CCN(CCCN2c3ccccc3Sc3ccc(C(F)(F)F)cc32)CC1` [Fluphenazine hydrochloride] yielded an AC50 cell viability in assay [1] of 7.42 µM. In addition, in assay [2], the efficacy is -94.5%.

With `C[C@@H]1CC2C3C[C@H](F)C\4=C\C(=O)\C=C/[C@]4(C)[C@@]3(F)[C@@H](O)C[C@]2(C)[C@@]1(OC(=O)C5=CC=CO5)C(=O)SCF` (stereo not given in full) [Fluticasone furoate], the AC50 cell viability in assay [1] came out at 20.9 µM. For the same molecule, the efficacy in assay [2] was -76.9%.

`CC(C)n1c(/C=C/[C@H](O)C[C@H](O)CC(=O)O)c(-c2ccc(F)cc2)c2ccccc21` [Fluvastatin] had an AC50 cell viability in assay [1] of 9.34 µM. Also, the efficacy in assay [2] is -71.8%.

In turn, `COc1cc2c(Oc3ccc(NC(=O)C4(C(=O)Nc5ccc(F)cc5)CC4)cc3F)ccnc2cc1OCCCN1CCOCC1` [Foretinib] showed an AC50 cell viability in assay [1] of 5.9 µM. For the same molecule, the efficacy in assay [2] is -101%.

Take `COc1cc(Nc2ncc(F)c(Nc3ccc4c(n3)N(COP(=O)(O)O)C(=O)C(C)(C)O4)n2)cc(OC)c1OC` [Fostamatinib]: the AC50 cell viability in assay [1] amounted to 18.6 µM. Besides, the efficacy in assay [2] is -70.2%.

`C[S+](=O)([O-])c1ccc(-c2nnc(/C=C/c3nnc(-c4ccc(C#N)cc4)o3)n2-c2ccccc2Cl)nc1` [G-007-LK] returned an AC50 cell viability in assay [1] of 14.8 µM. For the same molecule, the efficacy in assay [2] was -48.4%.

The molecule `CN(C)c1ccccc1CN1CCCN(Cc2ccccc2N(C)C)C1c1ccncc1` [GANT-61] registered an AC50 cell viability in assay [1] of 18.6 µM. For the same molecule, the efficacy in assay [2] is -88.6%.

`O=C(Nc1ccnc(NC(=O)C2CC2)c1)c1c(Cl)cccc1Cl` [GDC-046]: in assay [1], the AC50 cell viability was found to be 2.35 µM. Also, the efficacy in assay [2] is -79.8%.

The molecule `CC1(C)OCCn2c1nc1c(N3CCOCC3)nc(-c3cnc(N)nc3)nc12` [GDC-0084] came in with an AC50 cell viability in assay [1] of 0.833 µM. In assay [2], the efficacy is -58.4%.

The molecule `CC(C)n1ncnc1-c1cn2c(n1)-c1ccc(O[C@@H](C)C(N)=O)cc1OCC2` [GDC-0326] registered an AC50 cell viability in assay [1] of 6.61 µM. The efficacy in assay [2] is -72.2%.

Take `CCNC(=O)Nc1ccc(-c2nc3c(c(N4CCOC[C@@H]4C)n2)CCN(C2COC2)C3)cc1` [GDC-0349]: the AC50 cell viability in assay [1] was found to be 3.32 µM. In assay [2], the efficacy was -46.9%.

For `O=C(NOCCO)c1ccc2cncn2c1Nc1ccc(I)cc1F` [GDC-0623], in assay [1], the AC50 cell viability was found to be 11.8 µM. In assay [2], the efficacy was -43.9%.

For `Cc1c(CN2CCN(C(=O)[C@H](C)O)CC2)sc2c(N3CCOCC3)nc(-c3cnc(N)nc3)nc12` [GDC-0980], in assay [1], the AC50 cell viability is 0.525 µM. In addition, the efficacy in assay [2] was -57.1%.

In turn, `CN(C)C1=C(Br)C=C(C=C1)C\2NC3=C(\C4=C2C(=O)CC(C)(C)C4)C5=CC=CC=C5C=C3` (stereo not given) [GLS-968] registered an AC50 cell viability in assay [1] of 9.34 µM. Further, the efficacy in assay [2] is -31.2%.

For the molecule `N#C/N=C(\NCCCCCCOc1ccc(Cl)cc1)Nc1ccncc1` [GMX-1778], the AC50 cell viability in assay [1] amounted to 0.0132 µM. Also, in assay [2], the efficacy is -93.3%.

The molecule `COC1(c2sc3c(N4CCOCC4)nc(-c4cnc(N)nc4)nc3c2C)COC1` [GNE-317] displayed an AC50 cell viability in assay [1] of 0.59 µM. Besides, in assay [2], the efficacy was -58.4%.

In assay [1], `Cc1c(CN2CCN([S+](C)(=O)[O-])CC2)sc2c(N3CCOCC3)nc(-c3cnc(N)nc3)nc12` [GNE-477] had an AC50 cell viability of 0.59 µM. In assay [2], the efficacy was -57.8%.

With `Cc1nc(N)ncc1-c1nc(N2CCOCC2)c2sc(C(C)(C)O)cc2n1` [GNE-490], in assay [1], the AC50 cell viability was found to be 2.63 µM. In assay [2], the efficacy was -66.6%.

For `CC(C)(O)c1cc2nc(-c3cnc(N)nc3)nc(N3CCOCC3)c2s1` [GNE-493], the AC50 cell viability in assay [1] amounted to 0.833 µM. In assay [2], the efficacy is -55.2%.

Regarding `O=C(NCc1ccc([S+](=O)([O-])c2cccc(C(F)(F)F)c2)cc1)c1cnc2[nH]ncc2c1` [GNE-618], the AC50 cell viability in assay [1] was 0.0166 µM. For the same molecule, the efficacy in assay [2] is -90.4%.

`N#Cc1ccnc(Nc2cc(C3CCN(C4COC4)CC3)cc(N3CCC(F)(F)C3)n2)c1` [GNE-3511]: the AC50 cell viability in assay [1] was determined as 0.833 µM. Further, the efficacy in assay [2] was -77.1%.
